The target in data set [1] is Estrogen Receptor (ERα) in MCF-7 cells (Homo sapiens (Human), UniProt P03372). Put plainly: MCF-7 ER down-regulation assay (immuno-fluorescence). The data set is classed as cell-based. The settings on record: for % downregulation: shown in brackets where not >90%.
A short description of data set [2]: Thermodynamic solubility (shake flask). The data set is classed as physicochemical. The settings on record: aqueous phosphate buffer pH 7.4, 24 hours.
Data set [3] can be described thus: Human plasma protein binding (equilibrium dialysis). In kind it is in vitro ADME. The settings on record: dialysis 18 hours. A general note: In equilibrium dialysis free small molecules cross a membrane that holds back macromolecules.
The nature of the next data set: physchem. The settings on record: 1-octanol/aqueous buffer, pH 7.4.
Setting [4] is: aqueous phosphate buffer, 25 °C, pH 7.4, aqueous buffer, thermodynamic from solid.

Values after ≈ are worked out from the molar mass of the structure shown. Bounds are passed on as bounds.

Estrogen Receptor (ERα) in MCF-7 cells, sequence (P03372 whole entry): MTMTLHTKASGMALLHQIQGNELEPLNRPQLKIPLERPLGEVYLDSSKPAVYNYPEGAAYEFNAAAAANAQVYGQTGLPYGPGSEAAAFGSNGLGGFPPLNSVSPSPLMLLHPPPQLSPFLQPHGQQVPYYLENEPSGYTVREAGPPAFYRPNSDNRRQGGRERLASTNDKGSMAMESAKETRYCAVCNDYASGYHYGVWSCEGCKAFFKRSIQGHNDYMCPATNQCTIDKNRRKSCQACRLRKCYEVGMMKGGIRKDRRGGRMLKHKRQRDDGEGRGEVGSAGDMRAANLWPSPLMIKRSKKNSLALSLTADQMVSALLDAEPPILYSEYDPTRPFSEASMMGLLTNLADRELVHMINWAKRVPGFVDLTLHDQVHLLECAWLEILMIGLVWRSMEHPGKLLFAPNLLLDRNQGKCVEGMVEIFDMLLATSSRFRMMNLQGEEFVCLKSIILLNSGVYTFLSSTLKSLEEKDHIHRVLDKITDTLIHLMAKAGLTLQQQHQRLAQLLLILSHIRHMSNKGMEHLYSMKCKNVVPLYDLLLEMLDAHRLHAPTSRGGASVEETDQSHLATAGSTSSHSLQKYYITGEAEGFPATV

In general, solubility refers to the concentration that dissolves in the medium under given conditions. Usually logD stands for the decadic logarithm of the distribution of all forms, ionised or not, between an organic phase and buffer at a given pH. A high value points to higher lipophilicity. On to `C[C@@H]1Cc2c([nH]c3ccccc23)[C@@H](c2cnc(OCCNCCCF)cc2F)N1CC1(F)COC1` [Example 62, 3-fluoro-N-(2-((4-fluoro-5-((1R,3R)-2-((3-fluorooxetan-3-yl)methyl)-3-methyl-2,3,4,9-tetrahydro-1H-pyrido[3,4-b]indol-1-yl)pyridin-2-yl)oxy)ethyl)propan-1-amine], for which the DC50 in data set [1] (18-22 hours incubation, read-out: ER down regulation IC50 value) came to 3.9 nM. The compound also returned a solubility at 24 h in data set [2] (setting [4]) of 587 µM (≈ 287 µg/mL). Also, the “Human plasma protein binding (% free)” value in data set [3] stood at 13 % free. For the same compound, the pH-dependent lipophilicity (logD) in the data set “physchem” was 2.7.

A word on the IC50: it is the midpoint of a concentration-inhibition curve. Low values mean inhibition by little substance, high ones a need for much substance. The compound `C[C@@H]1Cc2c([nH]c3ccccc23)[C@@H](c2ccc(OCCNCCCF)cn2)N1CC1(F)CC1` [Example 31, 3-fluoro-N-(2-((6-((1S,3R)-2-((1-fluorocyclopropyl)methyl)-3-methyl-2,3,4,9-tetrahydro-1H-pyrido[3,4-b]indol-1-yl)pyridin-3-yl)oxy)ethyl)propan-1-amine] came in with a half-inhibitory concentration (IC50) in data set [1] (18-22 hours incubation) of 22 nM. Moreover, the “% downregulation” value in data set [1] is given as “(89%)”. Besides, the solubility at 24 h in data set [2] (setting [4]) stood at 554 µM (≈ 252 µg/mL). Also, the “Human plasma protein binding (% free)” value in data set [3] was 5.3 % free. This compound also had a log distribution coefficient (logD) in the data set “physchem” of 2.7.

The compound `CC(CNCCCF)Oc1cc(F)c([C@@H]2c3[nH]c4ccccc4c3C[C@@H](C)N2CC(C)(C)F)c(F)c1` (stereo partly drawn) [Example 19, 2-(3,5-difluoro-4-((1R,3R)-2-(2-fluoro-2-methylpropyl)-3-methyl-2,3,4,9-tetrahydro-1H-pyrido[3,4-b]indol-1-yl)phenoxy)-N-(3-fluoropropyl)propan-1-amine] came in with an IC50 in data set [1] (18-22 hours incubation) of 0.41 nM. The “% downregulation” value in data set [1] is given as “(68%)”. Moreover, the solubility at 24 h in data set [2] (setting [4]) stood at 11 µM (≈ 5.56 µg/mL). For the same compound, in data set [3], the “Human plasma protein binding (% free)” value came out at 0.56 % free. In “physchem”, the logD was more than 4.4.

In data set [1] (18-22 hours incubation), `C[C@@H]1Cc2c([nH]c3ccccc23)[C@@H](c2cnc(OCCNCCCF)cn2)N1CC(F)(F)CO` [Example 69, 2,2-difluoro-3-((1S,3R)-1-(5-(2-((3-fluoropropyl)amino)ethoxy)pyrazin-2-yl)-3-methyl-1,3,4,9-tetrahydro-2H-pyrido[3,4-b]indol-2-yl)propan-1-ol] displayed an IC50 of 0.54 nM. In addition, the solubility at 24 h in data set [2] (setting [4]) was determined as 820 µM (≈ 392 µg/mL). Also, the “Human plasma protein binding (% free)” value in data set [3] was found to be 15 % free. In “physchem”, this compound had a logD of 2.

As to `COc1cc(NCCNCCCF)ccc1[C@@H]1c2[nH]c3ccccc3c2C[C@@H](C)N1CC1(F)CC1` [Example 60, N1-(4-((1R,3R)-2-((1-fluorocyclopropyl)methyl)-3-methyl-2,3,4,9-tetrahydro-1H-pyrido[3,4-b]indol-1-yl)-3-methoxyphenyl)-N2-(3-fluoropropyl)ethane-1,2-diamine], 1.8 nM corresponded to half-maximal inhibition in data set [1] (18-22 hours incubation) (IC50). In addition, the solubility at 24 h in data set [2] (setting [4]) is 760 µM (≈ 367 µg/mL). Also, the “Human plasma protein binding (% free)” value in data set [3] was determined as 7.8 % free. In “physchem”, this compound came in with a logD of 2.9.

`COc1cc(OCCNCCCF)ccc1[C@@H]1c2[nH]c3ccccc3c2C[C@@H](C)N1CC(F)(F)F` [Example 73, 3-fluoro-N-(2-(3-methoxy-4-((1R,3R)-3-methyl-2-(2,2,2-trifluoroethyl)-2,3,4,9-tetrahydro-1H-pyrido[3,4-b]indol-1-yl)phenoxy)ethyl)propan-1-amine] had a concentration for half-maximal inhibition (IC50) in data set [1] (18-22 hours incubation) of 0.094 nM. Besides, the solubility at 24 h in data set [2] (setting [4]) stood at 51 µM (≈ 25.2 µg/mL). Moreover, the “Human plasma protein binding (% free)” value in data set [3] is on record as 0.66 % free. In addition, the logD in the data set “physchem” was more than 3.2.

Turning to `C[C@@H]1Cc2c([nH]c3ccccc23)[C@@H](c2ccc(OCCNCCCF)cn2)N1CC1(F)COC1` [Example 32, 3-fluoro-N-(2-((6-((1S,3R)-2-((3-fluorooxetan-3-yl)methyl)-3-methyl-2,3,4,9-tetrahydro-1H-pyrido[3,4-b]indol-1-yl)pyridin-3-yl)oxy)ethyl)propan-1-amine], half-maximal inhibition in data set [1] (18-22 hours incubation) (IC50) required 41 nM. In data set [2] (setting [4]), this compound displayed a solubility at 24 h of 980 µM (≈ 461 µg/mL). Moreover, the “Human plasma protein binding (% free)” value in data set [3] worked out at 16 % free. This compound also showed a log distribution coefficient (logD) in the data set “physchem” of 2.1.

Turning to `COc1cc(OCCNCCCF)ncc1[C@@H]1c2[nH]c3ccccc3c2C[C@@H](C)N1CC1(F)CC1` [Example 37, 3-fluoro-N-(2-((5-((1R,3R)-2-((1-fluorocyclopropyl)methyl)-3-methyl-2,3,4,9-tetrahydro-1H-pyrido[3,4-b]indol-1-yl)-4-methoxypyridin-2-yl)oxy)ethyl)propan-1-amine], the 50% inhibitory concentration (IC50) in data set [1] (18-22 hours incubation) turned out to be 0.51 nM. Further, in data set [2] (setting [4]), the solubility at 24 h amounted to 877 µM (≈ 425 µg/mL). In addition, in data set [3], the “Human plasma protein binding (% free)” value came to 8.5 % free. The pH-dependent lipophilicity (logD) in the data set “physchem” was determined as 2.4.

On to `C[C@@H]1Cc2c([nH]c3ccccc23)[C@@H](c2ccc(OCCNCCCF)cc2F)N1CC1(F)CC1` [Example 21, 3-fluoro-N-(2-(3-fluoro-4-((1R,3R)-2-((1-fluorocyclopropyl)methyl)-3-methyl-2,3,4,9-tetrahydro-1H-pyrido[3,4-b]indol-1-yl)phenoxy)ethyl)propan-1-amine], for which, in data set [1] (18-22 hours incubation), the midpoint of inhibition, the IC50, lay at 0.48 nM. In data set [2] (setting [4]), this compound showed a solubility at 24 h of 149 µM (≈ 70.3 µg/mL). The “Human plasma protein binding (% free)” value in data set [3] stood at 2.1 % free. The same compound came in with a logD in the data set “physchem” of 3.4.

On to `COc1cc(OCCNCCCF)ccc1[C@@H]1c2[nH]c3ccccc3c2C[C@@H](C)N1CC(C)(F)F` [Example 74, N-(2-(4-((1R,3R)-2-(2,2-difluoropropyl)-3-methyl-2,3,4,9-tetrahydro-1H-pyrido[3,4-b]indol-1-yl)-3-methoxyphenoxy)ethyl)-3-fluoropropan-1-amine], for which inhibition in data set [1] (18-22 hours incubation) was half-maximal at 0.14 nM (IC50). In addition, the solubility at 24 h in data set [2] (setting [4]) is 30 µM (≈ 14.7 µg/mL). Further, in data set [3], the “Human plasma protein binding (% free)” value turned out to be 0.33 % free. The same compound gave a log distribution coefficient (logD) in “physchem” of 3.9.

For the compound `C[C@@H]1Cc2c([nH]c3ccccc23)[C@@H](c2ccc(OCCNCCCF)cc2)N1CC(F)CF` (single isomer, unassigned) [Example 25], the midpoint of inhibition in data set [1] (18-22 hours incubation), the IC50, lay at 0.36 nM. In addition, in data set [2] (25° C.), the solubility at 24 h is reported as 135 µM (≈ 62 µg/mL). Further, the “Human plasma protein binding (% free)” value in data set [3] worked out at 1.6 % free. In “physchem”, this compound displayed a pH-dependent lipophilicity (logD) of 3.

In data set [1] (18-22 hours incubation), `C[C@@H]1Cc2c([nH]c3ccccc23)[C@@H](c2ccc(OC[C@H](C)NCCCF)cc2)N1CC1(F)COC1` [Example 27, 3-fluoro-N-((S)-1-(4-((1R,3R)-2-((3-fluorooxetan-3-yl)methyl)-3-methyl-2,3,4,9-tetrahydro-1H-pyrido[3,4-b]indol-1-yl)phenoxy)propan-2-yl)propan-1-amine] came in with an IC50 of 1.5 nM. Further, the “% downregulation” value in data set [1] is given as “(79%)”. For the same compound, in data set [2] (setting [4]), the solubility at 24 h turned out to be 281 µM (≈ 136 µg/mL). The “Human plasma protein binding (% free)” value in data set [3] is 5.2 % free. In the data set “physchem”, this compound yielded a logD of 3.

As for `Cc1cc(OCCNCCCF)ncc1[C@@H]1c2[nH]c3ccccc3c2C[C@@H](C)N1CC(F)F` [Example 63, N-(2-((5-((1R,3R)-2-(2,2-difluoroethyl)-3-methyl-2,3,4,9-tetrahydro-1H-pyrido[3,4-b]indol-1-yl)-4-methylpyridin-2-yl)oxy)ethyl)-3-fluoropropan-1-amine], the IC50 in data set [1] (18-22 hours incubation) was 1.8 nM. For the same compound, in data set [2] (setting [4]), the solubility at 24 h stood at 268 µM (≈ 123 µg/mL). Besides, the “Human plasma protein binding (% free)” value in data set [3] turned out to be 1.4 % free. Besides, in the data set “physchem”, the logD was more than 3.6.

On to `COc1cc(NCCNCCCF)ncc1[C@@H]1c2[nH]c3ccccc3c2C[C@@H](C)N1CC1(F)COC1` [Example 66, N1-(5-((1R,3R)-2-((3-fluorooxetan-3-yl)methyl)-3-methyl-2,3,4,9-tetrahydro-1H-pyrido[3,4-b]indol-1-yl)-4-methoxypyridin-2-yl)-N2-(3-fluoropropyl)ethane-1,2-diamine], for which, in data set [1] (18-22 hours incubation), the IC50 was determined as 1 nM. The compound further gave a solubility at 24 h in data set [2] (setting [4]) of more than 1000 µM. In addition, the “Human plasma protein binding (% free)” value in data set [3] amounted to 20 % free. In “physchem”, the pH-dependent lipophilicity (logD) came out at 2.

The record behind these values is US10149839B2, “Chemical compounds” (AstraZeneca AB, priority 2016, dated 2018).
